{
  "source": "patent US8465945B2",
  "about": "“Method for production and use of mite group 1 proteins” (Merck Patent GmbH, priority 1999, dated 2013)",
  "biological_target": "T1, P. pastoris-expressed Der f 1 protein (Dermatophagoides farinae, UniProt P16311, D282V)",
  "T1 construct": "The Der f 1 protein secreted as a mature form by recombinant cell P. pastoris HCY215; S. cerevisiae alpha factor signal peptide (with KEX2 site and Glu-Ala spacer) (N, cleaved yes); made in house; host or cells: Pichia pastoris strain X33 transformed with pBC128 (recombinant cell HCY215)",
  "T1 sequence (P16311 99-321 D282V)": "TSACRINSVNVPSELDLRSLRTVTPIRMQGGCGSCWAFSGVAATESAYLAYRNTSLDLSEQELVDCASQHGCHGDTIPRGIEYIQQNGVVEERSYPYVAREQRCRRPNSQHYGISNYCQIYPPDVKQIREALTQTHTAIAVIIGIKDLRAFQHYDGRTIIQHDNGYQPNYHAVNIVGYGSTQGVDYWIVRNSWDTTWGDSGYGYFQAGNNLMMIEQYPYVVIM",
  "experiment": "Inhibition of rDer f 1 cysteine protease activity by E-64",
  "assay_type": "biochemical, D. farinae",
  "settings": "E-64 1 μg/ml",
  "procedure": "Native Der f 1 is believed to be a cysteine protease, based on homology to papain; see, for example, Chua et al, 1992, J Exp Med 167, 175-182. The Der f 1 protein secreted as a mature form by recombinant cell P. pastoris HCY215 (i.e., P. pastoris strain X33 transformed with plasmid pBC128 containing nucleic acid molecule nDerf1909b (coding strand of SEQ ID NO:28) which encodes the pro-form of Der f 1 (amino acid sequence SEQ ID NO:29)) was tested for cysteine protease activity in the following manner. Three concentrations of protein were tested for their abilities to cleave an artificial substrate in the presence or absence of a cysteine protease inhibitor. Specifically, three pairs of samples containing 0.56 μg, 1.1 μg, or 5.6 μg of P. pastoris-expressed Der f 1 protein, respectively, were incubated for 30 minutes at room temperature in 20 μl of 50 mM Tris-HCl, pH 8. One member of each pair also contained the irreversible cysteine protease inhibitor E-64 at a concentration of 1 μg/ml. After the pre-incubation, 100 μl of 50 μM quenched fluorogenic substrate z-Val-Leu-Arg-AMC (available from Enzyme Systems Products, Livermore, Calif.) was added to all six samples, and the samples were incubated for 2 hours at room temperature. Fluorescence was measured using a Perkin Elmer Luminescence Spectrometer (model #LS50B) at an excitation wavelength of 380nm and an emission wavelength of 460 nm.",
  "data": [
    {"molecule": "CC(C)C[C@H](NC(=O)[C@H]1O[C@@H]1C(=O)O)C(=O)NCCCCN=C(N)N", "note": "[E-64]", "values": [
      {"measurement": "% Inhibition E-64", "setting": "0.56 micrograms rDer f 1", "result": 65, "unit": "%"},
      {"measurement": "% Inhibition E-64", "setting": "1.1 micrograms rDer f 1", "result": 55, "unit": "%"},
      {"measurement": "% Inhibition E-64", "setting": "5.6 micrograms rDer f 1", "result": 76, "unit": "%"}
    ]}
  ]
}
